Reference: patent publication US20250388541A1, “HETEROARYL COMPOUNDS FOR THE TREATMENT OF PAIN” (VERTEX PHARMACEUTICALS INCORPORATED, priority 2022, published 2025)

Target: human NaV 1.8 (Homo sapiens, UniProt Q9Y5Y9)
Test: E-VIPR assay detecting and measuring NaV inhibition properties
Assay type: cell-based
Details: HEK cells expressing a truncated form of human NaV 1.8; electrical stimulation, membrane potential FRET dyes; read-out: measured IC50 value in the E-VIPR Assay
Description: E-VIPR Assay Detecting and Measuring NaV Inhibition Properties
Sodium ion channels are voltage-dependent proteins that can be activated by inducing membrane voltage changes by applying electric fields. […] The instrument comprises a microtiter plate handler, an optical system for exciting the coumarin dye while simultaneously recording the coumarin and oxonol emissions, a waveform generator, a current- or voltage-controlled amplifier, and parallel electrode pairs that are inserted into assay plate wells. Under integrated computer control, this instrument passes user-programmed electrical stimulus protocols to cells within the wells of the microtiter plate.
16-20 hours prior to running the assay on E-VIPR, HEK cells expressing a truncated form of human NaV 1.8 with full channel activity were seeded into microtiter 384-well plates, pre-coated with matrigel, at a density of 25,000 cells per well. 2.5-5% KIR2.1 BacMam virus was added to the final cell suspension before seeding into cell plates. […] Cells were expanded in 5-layer CellSTACK culture chambers or cell culture flasks with vented caps, with 90-95% humidity and 5% CO2.
• Bath 1 Buffer containing 0.5% 3-cyclodextrin (made fresh prior to each use, Sigma #C4767), […] CC2-DMPE and 2 μM DiSBAC6(3). The solution was made by adding 10% Pluronic F127 stock equal to combined volumes of CC2-DMPE and DiSBAC6(3).
The compound plate was backfilled with 45 μL per well of Compound Loading Buffer resulting in a 240-fold dilution of compound following a 1:1 transfer of compound into the cell plate (see Step 6). […] This assay dilution protocol was adjusted to enable a higher dose range to be tested in the presence of HS or if the final assay volume was altered. • 2) Hexyl Dye Solution was prepared. • 3) Cell plates were prepared. On the day of the assay, the media was aspirated, and the cells were washed three times with 80 μL of Bath-1 buffer, maintaining 25 μL residual volume in each well. • 4) 25 μL per well of Hexyl Dye Solution was dispensed into the cell plates. The cells were incubated for 20 minutes at room temperature or ambient conditions in darkness. • 5) 45 μL per well of Compound Loading Buffer was dispensed into compound plates. • 6) The cell plates were washed three times with 80 μL per well of Bath-1 Buffer, leaving 25 μL of residual volume. Then 25 µL per well from compound plate was transferred to each cell plate. The mixture was incubated for 30 minutes at room temperature/ambient conditions. • 7) The cell plate containing compound was read on E-VIPR using the current-controlled amplifier to deliver stimulation wave pulses using a symmetrical biphasic waveform. […] A pre-stimulus recording was performed for each well for 0.5 seconds to obtain the un-stimulated intensities baseline. The stimulatory waveform was followed by 0.5 seconds of post-stimulation recording to examine the relaxation to the resting state. All E-VIPR responses were measured at 200 Hz acquisition rate.
The response as a function of time was reported as the ratios obtained using the following formula: […]
The data were normalized by calculating the initial (Ri) and final (Rf) ratios. These were the average ratio values during part or all of the pre-stimulation period and during sample points during the stimulation period. The fluorescence ratio (Rf/Ri) was then calculated and reported as a function of time.
Control responses were obtained by performing assays in the presence of the positive control, and in the absence of pharmacological agents (DMSO vehicle negative control). Responses to the negative (N) and positive (P) controls were calculated as above. The compound antagonist % activity A was then defined as:
[formula] • where X is the maximum amplitude of the ratio response or number of action potential peaks, at the beginning of the pulse train in the presence of test compound.

human NaV 1.8, sequence (Q9Y5Y9 126-399 limits assumed): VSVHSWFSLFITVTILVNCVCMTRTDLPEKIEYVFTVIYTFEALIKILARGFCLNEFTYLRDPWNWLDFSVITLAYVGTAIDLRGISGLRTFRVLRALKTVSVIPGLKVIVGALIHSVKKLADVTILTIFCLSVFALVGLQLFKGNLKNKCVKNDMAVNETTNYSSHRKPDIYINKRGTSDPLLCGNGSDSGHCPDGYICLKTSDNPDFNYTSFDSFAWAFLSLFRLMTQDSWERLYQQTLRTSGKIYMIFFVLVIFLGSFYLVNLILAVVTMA
human NaV 1.8, sequence (Q9Y5Y9 660-890 limits assumed): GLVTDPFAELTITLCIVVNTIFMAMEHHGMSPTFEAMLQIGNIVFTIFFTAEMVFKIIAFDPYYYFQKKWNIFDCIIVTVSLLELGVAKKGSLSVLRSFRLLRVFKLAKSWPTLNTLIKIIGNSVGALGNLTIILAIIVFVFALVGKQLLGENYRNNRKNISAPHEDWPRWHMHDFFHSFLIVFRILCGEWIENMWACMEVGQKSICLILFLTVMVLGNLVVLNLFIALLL
human NaV 1.8, sequence (Q9Y5Y9 1148-1722 limits assumed): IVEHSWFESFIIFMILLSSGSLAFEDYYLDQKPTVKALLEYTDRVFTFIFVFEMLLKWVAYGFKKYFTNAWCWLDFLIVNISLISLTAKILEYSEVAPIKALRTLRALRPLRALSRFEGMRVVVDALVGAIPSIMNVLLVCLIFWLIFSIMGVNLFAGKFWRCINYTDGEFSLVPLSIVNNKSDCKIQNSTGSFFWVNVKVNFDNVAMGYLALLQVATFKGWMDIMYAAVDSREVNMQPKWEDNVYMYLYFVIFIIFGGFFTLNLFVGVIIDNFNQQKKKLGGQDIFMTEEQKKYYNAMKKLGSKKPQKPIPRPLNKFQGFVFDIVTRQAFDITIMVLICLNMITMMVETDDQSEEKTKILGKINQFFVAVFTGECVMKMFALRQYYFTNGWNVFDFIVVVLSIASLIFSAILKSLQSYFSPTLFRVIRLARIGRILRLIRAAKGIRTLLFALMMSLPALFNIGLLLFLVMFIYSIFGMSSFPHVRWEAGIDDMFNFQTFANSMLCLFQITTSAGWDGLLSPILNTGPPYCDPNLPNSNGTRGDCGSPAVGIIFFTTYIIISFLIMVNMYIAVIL

`Cc1cc(C(C)(C)C)c(Cl)cc1-c1cc(=O)c(-c2cn(C)c(C)n2)c(C)[nH]1` [Compound 197, 6-(4-tert-butyl-5-chloro-2-methyl-phenyl)-3-(1,2-dimethylimidazol-4-yl)-2-methyl-1H-pyridin-4-one] gave an IC50 of 500 to 2000 nM.
In the case of `CC(=O)Nc1c(C)[nH]c(-c2ccc(C(C)(C)C)cc2C)cc1=O` [Compound 157, N-[6-(4-tert-butyl-2-methyl-phenyl)-2-methyl-4-oxo-1H-pyridin-3-yl]acetamide], the IC50 is reported as 500 to 2000 nM.
With `Cc1[nH]c(-c2ccc(C(C)(C)C)cc2)cc(=O)c1C` [Compound 79, 6-(4-tert-butylphenyl)-2,3-dimethyl-1H-pyridin-4-one] the IC50 was 500 to 2000 nM.
Work on `Cc1nc(-c2ccc(C(C)(C)C)cc2C)cc(=O)[nH]1` [Compound 83, 4-(4-tert-butyl-2-methyl-phenyl)-2-methyl-1H-pyrimidin-6-one] yielded an IC50 of 2000 to 5000 nM.
Compound `Cc1cc(C(C)(C)C)ccc1-c1cc(=O)c(C2CCN(C)CC2)c(C)[nH]1` [Compound 204, 6-(4-tert-butyl-2-methyl-phenyl)-2-methyl-3-(1-methyl-4-piperidyl)-1H-pyridin-4-one] has an IC50 of 500 to 2000 nM.
Work on `Cc1cc(C(C)(C)C)ccc1-c1cc(=O)c(NC(=O)[C@@H](C)N)c(C)[nH]1` [Compound 155, (2R)-2-amino-N-[6-(4-tert-butyl-2-methyl-phenyl)-2-methyl-4-oxo-1H-pyridin-3-yl]propanamide] yielded an IC50 of 500 to 2000 nM.
Work on `Cc1cc(C(C)(C)C)ccc1-c1cc(=O)c(CN)c(C)[nH]1` [Compound 154, 3-(aminomethyl)-6-(4-tert-butyl-2-methyl-phenyl)-2-methyl-1H-pyridin-4-one] yielded an IC50 of 500 to 2000 nM.
Compound `Cc1[nH]c(-c2ccc(C3(C(F)(F)F)CC3)cc2)cc(=O)c1C` [Compound 82, 2,3-dimethyl-6-[4-[1-(trifluoromethyl)cyclopropyl]phenyl]-1H-pyridin-4-one] has an IC50 of 500 to 2000 nM.
With `Cc1cc(=O)cc(-c2c(C)cc(C(C)(C)C)cc2C)[nH]1` [Compound 3, 2-(4-tert-butyl-2,6-dimethyl-phenyl)-6-methyl-1H-pyridin-4-one] the IC50 was 500 to 2000 nM.
With `COc1c(-c2ccc(C(C)(C)C)cc2C)[nH]c(C)cc1=O` [Compound 107, 2-(4-tert-butyl-2-methyl-phenyl)-3-methoxy-6-methyl-1H-pyridin-4-one] the IC50 was 500 to 2000 nM.
With `Cc1cc(C(C)(C)C)ccc1-c1cc(=O)c(-c2cccnc2C#N)c(C)[nH]1` [Compound 172, 3-[6-(4-tert-butyl-2-methyl-phenyl)-2-methyl-4-oxo-1H-pyridin-3-yl]pyridine-2-carbonitrile] the IC50 was 500 to 2000 nM.
`CCOc1c(-c2ccc(C(C)(C)C)cc2C)[nH]c(C)cc1=O` [Compound 106, 2-(4-tert-butyl-2-methyl-phenyl)-3-ethoxy-6-methyl-1H-pyridin-4-one] gave an IC50 of 500 to 2000 nM.
In the case of `Cc1cc(C(C)(C)C)c(Cl)cc1-c1cc(=O)c(-c2ncc[nH]2)c(C)[nH]1` [Compound 212, 6-(4-tert-butyl-5-chloro-2-methyl-phenyl)-3-(1H-imidazol-2-yl)-2-methyl-1H-pyridin-4-one], the IC50 is reported as 500 to 2000 nM.
For `COc1cc(=O)cc(-c2ccc(C(C)(C)C)cc2C)[nH]1` [Compound 104, 2-(4-tert-butyl-2-methyl-phenyl)-6-methoxy-1H-pyridin-4-one], the IC50 was 2000 to 5000 nM.
`COCn1ccnc1-c1c(C)[nH]c(-c2cc(Cl)c(C(C)(C)C)cc2C)cc1=O` [Compound 201, 6-(4-tert-butyl-5-chloro-2-methyl-phenyl)-3-[1-(methoxymethyl)imidazol-2-yl]-2-methyl-1H-pyridin-4-one] was tested, and the IC50 was 2000 to 5000 nM.
With `Cc1cc(C(C)(C)C)ccc1-c1cc(=O)cc(N(C)C)[nH]1` [Compound 100, 2-(4-tert-butyl-2-methyl-phenyl)-6-(dimethylamino)-1H-pyridin-4-one] the IC50 was 500 to 2000 nM.
With `Cc1cc(C(C)(C)C)c(Cl)cc1-c1cc(=O)c(S(=N)(=O)C(C)C)c(C)[nH]1` (stereo not drawn) [Compound 145, 6-(4-tert-butyl-5-chloro-2-methyl-phenyl)-3-(isopropylsulfonimidoyl)-2-methyl-1H-pyridin-4-one] the IC50 was 500 to 2000 nM.
`CCOC(=O)c1c(-c2c(C)cc(C(C)(C)C)cc2C)[nH]c(C)c(C)c1=O` [Compound 98, ethyl 2-(4-tert-butyl-2,6-dimethyl-phenyl)-5,6-dimethyl-4-oxo-1H-pyridine-3-carboxylate] was tested, and the IC50 was 500 to 2000 nM.
For `COc1nc2ccccc2cc1-c1cc(=O)c(C)c(C)[nH]1` [Compound 95, 6-(2-methoxy-3-quinolyl)-2,3-dimethyl-1H-pyridin-4-one], the IC50 was 2000 to 5000 nM.
With `Cc1cc(=O)c(C)c(-c2ccc(C(C)(C)C)cc2)[nH]1` [Compound 77, 2-(4-tert-butylphenyl)-3,6-dimethyl-1H-pyridin-4-one] the IC50 was 500 to 2000 nM.
`Cc1cc(C(C)(C)C)ccc1-c1cc(=O)c(NC(=O)[C@H](C)N)c(C)[nH]1` [Compound 156, (2S)-2-amino-N-[6-(4-tert-butyl-2-methyl-phenyl)-2-methyl-4-oxo-1H-pyridin-3-yl]propanamide] was tested, and the IC50 was 2000 to 5000 nM.
Compound `Cc1cc(=O)cc(-c2ccc(C(C)C)cc2C(C)C)[nH]1` [Compound 43, 2-(2,4-diisopropylphenyl)-6-methyl-1H-pyridin-4-one] has an IC50 of 2000 to 5000 nM.
`Cc1cc(C(C)(C)C)ccc1-c1cc(=O)c(C2=CCNCC2)c(C)[nH]1` [Compound 205, 6-(4-tert-butyl-2-methyl-phenyl)-2-methyl-3-(1,2,3,6-tetrahydropyridin-4-yl)-1H-pyridin-4-one] showed an IC50 of 500 to 2000 nM.
With `Cc1cc(C(C)(C)C)ccc1-c1cc(=O)c(C2=CCN(C)CC2)c(C)[nH]1` [Compound 174, 6-(4-tert-butyl-2-methyl-phenyl)-2-methyl-3-(1-methyl-3,6-dihydro-2H-pyridin-4-yl)-1H-pyridin-4-one] the IC50 was 2000 to 5000 nM.
Compound `Cc1cc(=O)c(C)c(-c2ccc(C(C)(C)C)cc2C)[nH]1` [Compound 75, 2-(4-tert-butyl-2-methyl-phenyl)-3,6-dimethyl-1H-pyridin-4-one] has an IC50 of 500 to 2000 nM.
`Cc1cc(=O)c(C)c(-c2ccc(C3(C(F)(F)F)CC3)cc2)[nH]1` [Compound 78, 3,6-dimethyl-2-[4-[1-(trifluoromethyl)cyclopropyl]phenyl]-1H-pyridin-4-one] gave an IC50 of 2000 to 5000 nM.
`Cc1cc(=O)cc(-c2ccc(C3(C(F)(F)F)CC3)cc2C)[nH]1` [Compound 96, 2-methyl-6-[2-methyl-4-[1-(trifluoromethyl)cyclopropyl]phenyl]-1H-pyridin-4-one] gave an IC50 of 500 to 2000 nM.
